{
  "source": "patent US20210395327A1",
  "about": "“Growth Hormone-Releasing Hormone Antagonists and Uses Thereof” (United States Government As Represented By The Department …, priority 2019, published 2021)",
  "key": {"[1]": {"system": "J82 urothelial cancer cells", "test": "In vitro cell viability, J82", "type": "cell-based, human", "settings": "antagonist 5 μM for 72 h, cell proliferation assay; MIA602 = 1", "outline": "(§1)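 Cells grown to ~60% confluence, serum-starved 24 h in 0.5% FBS, then treated with antagonists at 1, 2.5 or 5 μM or vehicle (0.1% DMSO) in quintuplicate for 72 h, medium replaced every 48 h. Viability read by MTS-type CellTiter 96 AQueous One assay; expressed as inhibitory potency relative to MIA602.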"}, "[2]": {"system": "prostate cancer PC3 xenograft", "test": "Xenograft tumor growth in nude mice, PC3", "type": "in vivo", "settings": "Table 4N, Prostate Ca PC3, 8 weeks, 5 μg/day s.c.", "protocol": "(§2) The peptides' activity was compared with GHRH antagonist MIA-602. All statistical analyzses were performed from comparing GHRA antagonists to non-treated tumor (control).\n(§3) Peptides and chemicals. GHRH antagonists MIA-602 and AVR-GHRH antagonists (see Table 2 above) were synthesized by solid phase methods and purified by HPLC. The peptides were dissolved in DMSO and further diluted in 10% 1,2-propanediol. The final concentration of peptides was 50 µg/ml in 10% 1,2-propanediol containing 0.1% of DMSO.\n(§4) Cell culture. Human cancer cell lines including pancreatic (PANC-1 and CFPAC-1), lung (HCC827 and H460), stomach (NCI-N87), prostate (PC3), brest (MX-1 and HCC-1806), colorectal (HT-29), and ovarian (SK-OV-3 and OVCAR-3) were obtained from the American Type Culture Collection (ATCC) and cultured at 37° C. in a humidified 95% air/5% CO2 atmosphere in the medium recommended by ATCC.\n(§5) Xenograft models of human cancers in nude mice. Female athymic (NCr nu/nu) nude mice, 5- to 6-weeks-old, obtained from the Envigo labs (Tampa, Fla.), were housed in laminar airflow cabinets under pathogen-free conditions with a 12-h light/12-h dark schedule, and were fed autoclaved standard chow and water. To generate mice with xenografted tumors, tumor xenografts were initiated by subcutaneous (s.c.) injection of 107 human cancer cells into female nude mice. After about 4 weeks the resulting tumors were dissected and collected after removing necrosis tissues. The tumors were then cut into particles with size of 3 mm3 and transplanted s.c. by trocar needle into experimental animals. When tumors grew to the size of 50-60 mm3 (by volume), mice were randomized into groups and treated daily for 4-8 weeks by subcutaneous administration of 5 μg of GHRH antagonists MIA-602 or AVR-compounds (2-10 μg as indicated), or vehicle solutions (0.1% DMSO in 10% 1,2-propanediol) respectively. Tumor sizes were measured weekly.\n(§6) Statistical analysis. One-way ANOVA followed by Bonferroni comparison were performed. Data are expressed as Mean±SEM. To determine statistical significance between animal groups, two-tailed Student's t-test was conducted. Differences were considered significant when p<0.05.\n(§7) Results. […] FIG. 1A-N represents in vivo inhibition of tumor growth during the treatment with GHRH antagonist MIA-602 and selected AVR antagonists in nude mice xenografted with various human tumors including pancreatic cancer PANC-1 (FIG. 1A) and CFPAC-1 (FIG. 1I); lung cancer HCC827 (FIGS. 1B, C) and H460 (FIG. 1H); stomach cancer N87 (FIGS. 1D-F); colon cancer HT-29 (FIG. 1G); breast cancer MX-1 and HCC-1806 (FIGS. 1J, K); ovarian cancer SK-OV-3 and OVACAR-3 (FIGS. 1 L, M) and prostate cancer PC3 (FIG. 1N). See also Table 5."}, "[3]": {"system": "KATOIII stomach cancer cells", "test": "In vitro cell viability, KATOIII", "type": "cell-based, human", "settings": "antagonist 5 μM for 72 h, cell proliferation assay; MIA602 = 1", "outline": "as §1"}, "MX-1 breast cancer cells": {"system": "MX-1 breast cancer cells", "test": "In vitro cell viability, MX-1", "type": "cell-based, human", "outline": "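Human tumour lines were exposed to GHRH antagonist at 1, 2.5 or 5 μM for 72 h with medium refreshed every 48 h, after 24 h in low-serum (0.5% FBS) medium. Cell viability (CellTiter 96) was expressed as inhibition relative to MIA602.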"}, "[4]": {"system": "PANC-1 pancreatic cancer cells", "test": "In vitro cell viability, PANC-1", "type": "cell-based, human", "settings": "antagonist 5 μM for 72 h, cell proliferation assay; MIA602 = 1", "outline": "as §1"}, "[5]": {"system": "pancreatic cancer PANC-1 xenograft", "test": "Xenograft tumor growth in nude mice, PANC-1", "type": "in vivo", "settings": "Table 4A, Pancreatic Ca PANC-1, 7 weeks, 5 μg/day s.c.", "protocol": "as §2, §3, §4, §5, §6, §7"}, "[6]": {"system": "ovarian cancer SK-OV-3 xenograft", "test": "Xenograft tumor growth in nude mice, SK-OV-3", "type": "in vivo", "settings": "Table 4L, Ovarian Ca SK-OV-3, 7 weeks, 5 μg/day s.c.", "protocol": "as §2, §3, §4, §5, §6, §7"}, "[7]": {"system": "breast cancer MX-1 xenograft", "test": "Xenograft tumor growth in nude mice, MX-1", "type": "in vivo", "settings": "Table 4J, Breast Ca MX-1, 4 weeks, 5 μg/day s.c.", "protocol": "as §2, §3, §4, §5, §6, §7"}},
  "note": "Non-standard residues stand in square brackets, D forms with d. Residues, ends and D or L forms follow the SMILES beside them. *: point of attachment. Phe(F5) = N[C@@H](Cc1c(F)c(F)c(F)c(F)c1F)C(=O)O; hArg = N=C(N)NCCCC[C@H](N)C(=O)O; 12Ado = NCCCCCCCCCCCC(=O)O; Nle = CCCC[C@H](N)C(=O)O; Orn = NCCC[C@H](N)C(=O)O; Abu = CC[C@H](N)C(=O)O; PhAc = O=C(Cc1ccccc1)*",
  "data": [
    {"smiles": "CCCC[C@H](NC(=O)[C@@H](NC(=O)[C@H](CC(=O)O)NC(=O)[C@H](CCC(N)=O)NC(=O)[C@H](CC(C)C)NC(=O)[C@H](CC(C)C)NC(=O)[C@H](CCCN)NC(=O)[C@H](Cc1c[nH]cn1)NC(=O)[C@H](C)NC(=O)[C@H](CO)NC(=O)[C@H](CC(C)C)NC(=O)[C@H](CCC(N)=O)NC(=O)[C@H](CC)NC(=O)[C@H](CC(C)C)NC(=O)[C@@H](NC(=O)[C@H](CCCN)NC(=O)[C@H](Cc1c[nH]cn1)NC(=O)[C@H](Cc1ccc(OC)cc1)NC(=O)[C@H](CCCCNC(=N)N)NC(=O)[C@H](C)NC(=O)[C@@H](NC(=O)[C@H](Cc1c(F)c(F)c(F)c(F)c1F)NC(=O)[C@@H](NC(=O)[C@H](C)NC(=O)[C@H](CC(=O)O)NC(=O)[C@@H](CCCNC(=N)N)NC(=O)[C@H](Cc1ccc(O)cc1)NC(=O)CCCCCCCCCCCNC(=O)Cc1ccccc1)[C@@H](C)CC)[C@@H](C)O)C(C)C)[C@@H](C)CC)C(=O)N[C@H](CCCNC(=N)N)C(=O)N[C@@H](CCCCNC(=N)N)C(N)=O", "note": "[MIA-602, PhAC-Ada, Tyr D-Arg, Asp, Ala, Ile, 5FPhe, Thr, Ala, Har, Tyr(Me), His, Orn, Val, Leu, Abu, Gin, Leu, Ser, Ala, His, Om, Leu, Leu, Gin, Asp, Ile; Nle, D-Arg, Har NH2, reference compound] ({PhAc-12Ado}-Y[dR]DAI[Phe(F5)]TA[hArg]Y(Me)H[Orn]VL[Abu]QLSAH[Orn]LLQDI[Nle][dR][hArg]-NH2)", "values": [
      {"measurement": "relative inhibitory potency in comparison to MIA-602, Urothelial J82", "setting": "[1]", "value": 1},
      {"measurement": "Tumor Size (mm3)", "setting": "[2]", "value": 450.9, "unit": "mm3"},
      {"measurement": "% Inhibition", "setting": "[2]; vs control", "value": 45.5, "unit": "%"},
      {"measurement": "relative inhibitory potency in comparison to MIA-602, Stomach KATOIII", "setting": "[3]", "value": 1},
      {"measurement": "In vitro relative inhibitory potency in comparison to MIA-602, MX-1", "setting": "MX-1 breast cancer cells; Table 3B, 5 μM for 72 H, MIA-602 = 1", "value": 1},
      {"measurement": "relative inhibitory potency in comparison to MIA-602, Breast MX-1", "setting": "MX-1 breast cancer cells; antagonist 5 μM for 72 h, cell proliferation assay, MIA602 = 1", "value": 1},
      {"measurement": "relative inhibitory potency in comparison to MIA-602, Pancreatic Panc-1", "setting": "[4]", "value": 1},
      {"measurement": "Tumor Growth %", "setting": "[5]", "value": 1572.7, "unit": "%"},
      {"measurement": "% Inhibition", "setting": "[5]; vs control", "value": 41.1, "unit": "%"},
      {"measurement": "Tumor Size (mm3)", "setting": "[6]", "value": 810.1, "unit": "mm3"},
      {"measurement": "% Inhibition", "setting": "[6]; vs control", "value": 38.0, "unit": "%"},
      {"measurement": "Tumor Growth %", "setting": "[7]", "value": 677.3, "unit": "%"},
      {"measurement": "% Inhibition", "setting": "[7]; vs control", "value": 39.2, "unit": "%"}
    ]}
  ]
}
